The source made the active and inactive calls. The calls are words filed in the database; no cut-off is given here.
Key:
[1] = molecular target: T1, Serine/threonine-protein kinase B-raf (Homo sapiens, UniProt P15056); assay: Activation of tumorigenic wild type B-Raf in human IPC-298 cells with Ras mutation assessed as phosphorylation of ERK; format: cell-based
Target sequence in this assay (P15056 2-766 limits assumed, change not shown): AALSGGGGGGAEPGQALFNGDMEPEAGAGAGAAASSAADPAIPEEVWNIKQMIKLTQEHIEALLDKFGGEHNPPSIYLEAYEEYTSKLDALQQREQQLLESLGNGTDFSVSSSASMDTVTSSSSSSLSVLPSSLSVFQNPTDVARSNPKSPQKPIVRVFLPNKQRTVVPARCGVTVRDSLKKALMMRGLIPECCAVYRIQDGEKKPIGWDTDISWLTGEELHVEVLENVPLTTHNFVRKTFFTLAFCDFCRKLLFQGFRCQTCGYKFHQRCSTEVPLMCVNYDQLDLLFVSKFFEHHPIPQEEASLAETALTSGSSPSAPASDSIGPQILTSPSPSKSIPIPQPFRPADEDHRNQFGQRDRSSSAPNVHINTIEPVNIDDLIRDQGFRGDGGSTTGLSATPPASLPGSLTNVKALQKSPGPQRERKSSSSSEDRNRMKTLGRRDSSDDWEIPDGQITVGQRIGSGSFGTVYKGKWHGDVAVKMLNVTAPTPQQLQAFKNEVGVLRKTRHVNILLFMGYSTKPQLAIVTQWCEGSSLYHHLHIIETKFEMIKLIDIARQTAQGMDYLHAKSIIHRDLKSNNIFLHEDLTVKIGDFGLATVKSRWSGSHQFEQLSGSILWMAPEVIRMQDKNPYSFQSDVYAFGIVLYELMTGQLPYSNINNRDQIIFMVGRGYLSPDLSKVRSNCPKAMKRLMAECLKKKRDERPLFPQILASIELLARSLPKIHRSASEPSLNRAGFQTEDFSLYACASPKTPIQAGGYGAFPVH

[2] = molecular target: T1, Serine/threonine-protein kinase B-raf; assay: Binding affinity to recombinant human full-length wild type B-Raf (unknown origin) assessed as DSSDDWEIPDGQITVGQR accessible protease cleavage peptide level by LC-MS/MS analysis relative to control; further: test concentration or dose not given here
Target sequence in this assay (P15056 whole entry): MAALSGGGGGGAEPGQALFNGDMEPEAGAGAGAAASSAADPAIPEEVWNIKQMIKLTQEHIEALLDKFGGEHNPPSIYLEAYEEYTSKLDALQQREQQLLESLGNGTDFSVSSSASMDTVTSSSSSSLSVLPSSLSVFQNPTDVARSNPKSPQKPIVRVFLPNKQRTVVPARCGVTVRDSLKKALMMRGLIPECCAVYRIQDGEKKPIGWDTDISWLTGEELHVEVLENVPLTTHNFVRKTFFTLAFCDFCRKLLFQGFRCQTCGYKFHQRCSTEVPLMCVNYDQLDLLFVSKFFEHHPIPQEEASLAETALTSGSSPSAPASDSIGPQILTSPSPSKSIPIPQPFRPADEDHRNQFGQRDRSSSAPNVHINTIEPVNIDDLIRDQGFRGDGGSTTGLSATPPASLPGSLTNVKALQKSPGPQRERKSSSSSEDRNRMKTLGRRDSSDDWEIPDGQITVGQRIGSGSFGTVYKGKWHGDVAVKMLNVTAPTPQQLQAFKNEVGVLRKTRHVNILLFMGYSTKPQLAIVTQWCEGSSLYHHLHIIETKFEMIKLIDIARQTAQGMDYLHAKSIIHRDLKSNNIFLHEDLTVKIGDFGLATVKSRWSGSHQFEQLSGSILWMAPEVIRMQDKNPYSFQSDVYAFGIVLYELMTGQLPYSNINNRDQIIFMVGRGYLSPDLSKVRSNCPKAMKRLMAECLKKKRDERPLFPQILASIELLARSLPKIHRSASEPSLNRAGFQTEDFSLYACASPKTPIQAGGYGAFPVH

[3] = molecular target: T1, Serine/threonine-protein kinase B-raf; assay: Binding affinity to recombinant human full-length wild type B-Raf (unknown origin) assessed as IGDFGLATVK accessible protease cleavage peptide level by LC-MS/MS analysis relative to control
Target sequence in this assay (P15056 whole entry): as above

[4] = molecular target: T1, Serine/threonine-protein kinase B-raf; assay: Binding affinity to recombinant human full-length wild type B-Raf (unknown origin) assessed as WHGDVAVK accessible protease cleavage peptide level by LC-MS/MS analysis relative to control
Target sequence in this assay (P15056 whole entry): as above

[5] = molecular target: T1, Serine/threonine-protein kinase B-raf; assay: Binding affinity to recombinant human full-length wild type B-Raf (unknown origin) assessed as QTAQGMDYLHAK accessible protease cleavage peptide level by LC-MS/MS analysis relative to control
Target sequence in this assay (P15056 whole entry): as above

[6] = molecular target: T2, Serine/threonine-protein kinase B-raf (Homo sapiens, UniProt P15056, V600E); assay: Binding affinity to B-Raf V600E mutant (unknown origin)
T2 sequence (P15056 2-766 V600E limits assumed): as the sequence (P15056 2-766 limits assumed, change not shown) above, with V599E counted along it

[7] = molecular target: T2, Serine/threonine-protein kinase B-raf; assay: Inhibition of B-Raf V600E mutant (unknown origin) assessed as inhibition of phosphorylation of peptide substrate
[8] = molecular target: T1, Serine/threonine-protein kinase B-raf; assay: Binding affinity to recombinant human full-length wild type B-Raf (unknown origin) assessed as LIDIAR accessible protease cleavage peptide level by LC-MS/MS analysis relative to control; further: test concentration or dose not given here
Target sequence in this assay (P15056 whole entry): as the sequence (P15056 whole entry) above

[9] = molecular target: T1, Serine/threonine-protein kinase B-raf; assay: Inhibition of phosphorylation of MEK level in human SW620 cells expressing wild type B-Raf at 3 microM after 48 hrs by immunoblotting analysis; format: cell-based; settings: SW-620
Target sequence in this assay (P15056 whole entry): as above

[10] = molecular target: T1, Serine/threonine-protein kinase B-raf; assay: Binding affinity to recombinant human full-length wild type B-Raf (unknown origin) assessed as VFLPNK accessible protease cleavage peptide level by LC-MS/MS analysis relative to control
[11] = molecular target: T1, Serine/threonine-protein kinase B-raf; assay: Binding affinity to recombinant human full-length wild type B-Raf (unknown origin) assessed as DQIIFMVGR accessible protease cleavage peptide level by LC-MS/MS analysis relative to control
[12] = molecular target: T1, Serine/threonine-protein kinase B-raf; assay: Binding affinity to recombinant human full-length wild type B-Raf (unknown origin) assessed as IGSGSFGTVYK accessible protease cleavage peptide level by LC-MS/MS analysis relative to control
[13] = molecular target: T1, Serine/threonine-protein kinase B-raf; assay: Binding affinity to recombinant human full-length wild type B-Raf (unknown origin) assessed as 7VVPAR accessible protease cleavage peptide level by LC-MS/MS analysis relative to control; further: test concentration or dose not given here
[14] = molecular target: T1, Serine/threonine-protein kinase B-raf; assay: Binding affinity to recombinant human full-length wild type B-Raf (unknown origin) assessed as NEVGVLR accessible protease cleavage peptide level by LC-MS/MS analysis relative to control
[15] = molecular target: T1, Serine/threonine-protein kinase B-raf; assay: Inhibition of phosphorylation of ERK level in human SW620 cells expressing wild type B-Raf at 3 microM after 48 hrs by immunoblotting analysis; format: cell-based; settings: SW-620
[16] = molecular target: T1, Serine/threonine-protein kinase B-raf; assay: Binding affinity to recombinant human full-length wild type B-Raf (unknown origin) assessed as DSLKK accessible protease cleavage peptide level by LC-MS/MS analysis relative to control
[17] = molecular target: T1, Serine/threonine-protein kinase B-raf; assay: Binding affinity to recombinant human full-length wild type B-Raf (unknown origin) assessed as SPQKPIVR accessible protease cleavage peptide level by LC-MS/MS analysis relative to control
SW-620 = assay: Inhibition of cell proliferation in human SW620 cells expressing wild type B-Raf after 96 hrs by MTT assay; format: functional, cell-based
[18] = molecular target: T1, Serine/threonine-protein kinase B-raf; assay: Binding affinity to recombinant human full-length wild type B-Raf (unknown origin) assessed as GYLSPDLSK accessible protease cleavage peptide level by LC-MS/MS analysis relative to control
[19] = molecular target: T1, Serine/threonine-protein kinase B-raf; assay: Binding affinity to recombinant human full-length wild type B-Raf (unknown origin) assessed as GDGGSTTGLSATPPASLPGSLTNVK accessible protease cleavage peptide level by LC-MS/MS analysis relative to control
[20] = molecular target: T1, Serine/threonine-protein kinase B-raf; assay: Binding affinity to recombinant human full-length wild type B-Raf (unknown origin) assessed as SNNIFLHEDLTVK accessible protease cleavage peptide level by LC-MS/MS analysis relative to control; further: test concentration or dose not given here
A-375 = assay: Inhibition of cell proliferation in human A375 cells expressing B-Raf V600E mutant after 96 hrs by MTT assay; format: functional, cell-based
[21] = molecular target: T2, Serine/threonine-protein kinase B-raf; assay: Inhibition of B-Raf V600E mutant in human A375 cells assessed as phosphorylation of ERK; format: cell-based, A-375
[22] = molecular target: T1, Serine/threonine-protein kinase B-raf; assay: Binding affinity to recombinant human full-length wild type B-Raf (unknown origin) assessed as SIPIPQPFRPADEDHR accessible protease cleavage peptide level by LC-MS/MS analysis relative to control; further: test concentration or dose not given here
[23] = molecular target: T1, Serine/threonine-protein kinase B-raf; assay: Binding affinity to wild type B-Raf (unknown origin)
[24] = molecular target: T1, Serine/threonine-protein kinase B-raf; assay: Binding affinity to recombinant human full-length wild type B-Raf (unknown origin) assessed as SIIHRDLK accessible protease cleavage peptide level by LC-MS/MS analysis relative to control
[25] = molecular target: T1, Serine/threonine-protein kinase B-raf; assay: Binding affinity to recombinant human full-length wild type B-Raf (unknown origin) assessed as SASEPSLNR accessible protease cleavage peptide level by LC-MS/MS analysis relative to control
[26] = molecular target: T1, Serine/threonine-protein kinase B-raf; assay: Binding affinity to recombinant human full-length wild type B-Raf (unknown origin) assessed as TPIQAGGYGAFPVH accessible protease cleavage peptide level by LC-MS/MS analysis relative to control; further: test concentration or dose not given here

| SMILES | EC50 [1] [nM] | Ratio [2] | Ratio [3] | Ratio [4] | Ratio [5] | Ratio [8] | Ratio [10] | Ratio [11] | Ratio [12] | Ratio [13] | Ratio [14] | Ratio [16] | Ratio [17] | Ratio [18] | Ratio [19] | Ratio [20] | Ratio [22] | Ratio [24] | Ratio [25] | Ratio [26] | also measured |
| --- | --- | --- | --- | --- | --- | --- | --- | --- | --- | --- | --- | --- | --- | --- | --- | --- | --- | --- | --- | --- | --- |
| CCN(C)S(=O)(=O)Nc1ccc(F)c(C(=O)c2c[nH]c3ncc(-c4ccc(Cl)cc4)cc23)c1F | > 10000 | 0.37 | 0.3 | 0.36 | 0.36 | 0.23 | 0.73 | 0.48 | 0.42 | 0.96 | 0.12 | 0.93 | 0.94 | 0.41 | 1.16 | 0.11 | 1.27 | 0.3 | 1.53 | 1.22 | Kd [6]: 1410 nM; IC50 [7]: < 100 nM; inhibition [9]: Active; inhibition [15]: Active; inhibition (SW-620): inactive; inhibition (A-375): Active; IC50 [21]: < 1000 nM; Kd [23]: 690 nM |
| Nc1ncnc2c1ncn2[C@@H]1O[C@H](COP(=O)(O)OP(=O)(O)OP(=O)(O)O)[C@@H](O)[C@H]1O | – | 0.62 | 0.72 | 0.75 | 0.81 | 0.54 | 0.78 | 0.57 | 0.62 | 0.97 | 0.34 | 0.76 | 0.64 | 0.76 | 0.68 | 0.77 | 0.75 | 1.16 | 0.94 | 0.95 | – |
| CCN(C)S(=O)(=O)Nc1ccc(F)c(C(=O)c2c[nH]c3ncc(Cl)cc23)c1F | > 10000 | 0.56 | 0.53 | 0.5 | 0.9 | 0.5 | 1.01 | 0.83 | 0.62 | 1.26 | 0.37 | 1.71 | 1.11 | 0.91 | 1.55 | 0.21 | 1.45 | 0.47 | 1.8 | 1.42 | Kd [6]: 550 nM; IC50 [7]: < 100 nM; inhibition [9]: Active; inhibition [15]: Active; inhibition (SW-620): inactive; inhibition (A-375): Active; IC50 [21]: < 1000 nM; Kd [23]: 400 nM |
| Nc1ncnc2c1ncn2[C@@H]1O[C@H](COP(=O)(O)OP(=O)(O)NP(=O)(O)O)[C@@H](O)[C@H]1O | – | 0.71 | 0.79 | 0.67 | 0.72 | 0.55 | 0.91 | 0.62 | 0.83 | 0.89 | 0.46 | 0.76 | 0.83 | 0.82 | 0.98 | 1.03 | 1 | 0.37 | 0.95 | 1.14 | – |
| Nc1ncnc2c1ncn2[C@@H]1O[C@H](COP(=O)(O)OP(=O)(O)O)[C@@H](O)[C@H]1O | – | 0.83 | 1.3 | 0.99 | 1.22 | 0.86 | 1.24 | 1.36 | 1.18 | 1.21 | 1.13 | 1.34 | 1.14 | 1.27 | 1.28 | 1.9 | 1.34 | 0.32 | 1.04 | 1.42 | – |
